Patent US6479509B1, “Method of promoting smoking cessation” (priority 2000, dated 2002)
Entries after “also recorded” stand apart in the source; their conditions may differ. Where two headings read alike, the source gives them in different places.

How the values were obtained:
[1] = test system: nicotine-induced antinociception; experiment: Blockade of nicotine-induced antinociception, tail-flick test; assay type: in vivo, mice; conditions: for AD50 Tail-Flick: blocking antinociception of nicotine 2.5 mg/kg, systemic administration; for AD50, nicotine-induced antinociception in tail-flick test: s.c. administration
Experimental: Anitinociception. The tail-flick method of D'Amour and Smith (1941) as modified by Dewey et al. (1970) was used. A control response (2-4 s) was determined for each animal before treatment, and a test latency was determined after drug administration. To minimize tissue damage, a maximum latency of 10 s was imposed. Antinociceptive response was calculated as percent maximum possible effect (% MPE), where % MPE=[((test-control)/(10-control))×100], Groups of 8 to 12 animals were used for each dose and for each treatment. Mice were tested 5 min after nicotine administration for the dose-response evaluation. Antagonism studies were carried out by pretreating the mice s.c. with either saline or various drugs at different times before nicotine. The animals were tested 5 min after administration of nicotine.
(§1) Data were analyzed statistically by an analysis of variance followed by the Fisher's P least-significant difference multiple comparison test. The null hypothesis was rejected at the […].

Dopamine transporter = biological target: T1, Dopamine transporter (Rattus norvegicus, UniProt P23977)
T1 construct: from tissue; host or cells: brain
T1 sequence (P23977 whole entry): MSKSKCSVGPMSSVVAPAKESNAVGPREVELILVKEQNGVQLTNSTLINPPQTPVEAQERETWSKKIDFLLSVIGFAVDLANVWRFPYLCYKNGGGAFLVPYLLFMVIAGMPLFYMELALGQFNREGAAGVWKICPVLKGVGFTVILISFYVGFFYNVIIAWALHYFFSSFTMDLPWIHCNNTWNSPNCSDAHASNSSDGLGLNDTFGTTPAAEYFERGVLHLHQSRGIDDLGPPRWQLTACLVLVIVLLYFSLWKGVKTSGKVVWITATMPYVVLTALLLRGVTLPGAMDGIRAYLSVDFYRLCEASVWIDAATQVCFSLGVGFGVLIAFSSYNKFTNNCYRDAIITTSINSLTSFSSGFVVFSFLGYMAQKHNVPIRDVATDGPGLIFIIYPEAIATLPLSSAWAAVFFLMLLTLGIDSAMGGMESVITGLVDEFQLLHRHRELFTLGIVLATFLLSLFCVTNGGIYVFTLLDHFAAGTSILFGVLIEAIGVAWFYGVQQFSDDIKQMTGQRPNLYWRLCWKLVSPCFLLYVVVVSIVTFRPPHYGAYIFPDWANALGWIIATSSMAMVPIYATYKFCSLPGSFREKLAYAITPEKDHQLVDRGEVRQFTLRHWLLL

Serotonin transporter = biological target: T2, Serotonin transporter (Rattus norvegicus, UniProt P31652)
T2 construct: from tissue; host or cells: brain
T2 sequence (P31652 whole entry): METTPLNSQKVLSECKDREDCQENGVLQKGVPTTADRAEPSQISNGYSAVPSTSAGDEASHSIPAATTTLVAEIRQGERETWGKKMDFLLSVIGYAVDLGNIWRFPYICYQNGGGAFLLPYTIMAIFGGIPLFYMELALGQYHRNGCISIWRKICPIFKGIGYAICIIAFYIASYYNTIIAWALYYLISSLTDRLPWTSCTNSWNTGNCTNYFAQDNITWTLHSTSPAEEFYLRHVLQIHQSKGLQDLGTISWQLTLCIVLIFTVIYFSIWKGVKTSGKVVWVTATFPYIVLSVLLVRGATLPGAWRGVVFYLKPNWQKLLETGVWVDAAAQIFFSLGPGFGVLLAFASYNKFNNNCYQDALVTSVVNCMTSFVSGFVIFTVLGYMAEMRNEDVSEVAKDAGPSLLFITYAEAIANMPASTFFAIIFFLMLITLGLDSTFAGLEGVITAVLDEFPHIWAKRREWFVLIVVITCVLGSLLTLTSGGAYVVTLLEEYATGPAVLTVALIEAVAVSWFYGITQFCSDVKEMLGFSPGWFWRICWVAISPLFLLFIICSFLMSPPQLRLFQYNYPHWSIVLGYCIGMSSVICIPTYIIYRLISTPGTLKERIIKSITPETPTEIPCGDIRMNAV

[2] = biological target: T3, Norepinephrine transporter (Rattus norvegicus, UniProt Q63380)
T3 construct: from tissue; host or cells: brain
T3 sequence (Q63380 1-617): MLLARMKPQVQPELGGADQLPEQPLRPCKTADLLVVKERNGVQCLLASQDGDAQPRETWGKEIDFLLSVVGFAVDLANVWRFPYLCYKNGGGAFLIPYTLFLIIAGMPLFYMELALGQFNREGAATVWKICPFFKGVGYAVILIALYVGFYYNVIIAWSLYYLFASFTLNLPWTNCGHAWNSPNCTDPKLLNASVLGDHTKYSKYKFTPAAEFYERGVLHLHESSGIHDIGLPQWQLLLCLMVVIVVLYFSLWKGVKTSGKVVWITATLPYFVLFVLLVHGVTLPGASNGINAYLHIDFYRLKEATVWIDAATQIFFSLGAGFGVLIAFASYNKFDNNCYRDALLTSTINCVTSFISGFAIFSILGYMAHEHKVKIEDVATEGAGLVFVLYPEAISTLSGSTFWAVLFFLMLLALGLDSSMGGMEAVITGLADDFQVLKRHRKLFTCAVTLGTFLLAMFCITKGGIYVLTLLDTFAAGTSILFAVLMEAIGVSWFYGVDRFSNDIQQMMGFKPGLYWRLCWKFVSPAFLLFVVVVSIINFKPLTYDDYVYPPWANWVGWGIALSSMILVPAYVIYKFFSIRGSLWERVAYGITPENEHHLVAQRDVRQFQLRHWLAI

[3] = test system: nicotine-induced hypothermia; experiment: Blockade of nicotine-induced hypothermia (body temperature); assay type: in vivo, mice; conditions: for AD50 Hypothermia: blocking nicotine-induced hypothermia, systemic administration
Experimental: Body Temperature. Rectal temperature was measured by a thermistor probe (inserted 24 mm) and digital thermometer (Yellow Springs Instrument Co., Yellow Springs, Ohio). Readings were taken just before and at 30 min after the s.c. injection of nicotine. For antagonism studies, mice were pretreated with either saline or various drugs 10 min before nicotine. The difference in rectal temperature before and after treatment was calculated for each mouse. The ambient temperature of the laboratory varied from 21 to 24° C. from day to day.
as §1

[4] = brain; read-out: Dopamine [3H]WIN 35,428 IC50; cited from earlier work
[5] = brain; read-out: Serotonin [3H]Paroxetine IC50; cited from earlier work
[6] = brain; read-out: Norepinephrine [3H]Nisoxetime IC50; cited from earlier work
[7] = read-out: Dopamine [3H]WIN 35,428 IC50; brain; cited from earlier work
[8] = read-out: Norepinephrine [3H]Nisoxetime IC50; brain; cited from earlier work

SMILES: Cc1ccc([C@H]2C[C@@H]3CC[C@H]([C@H]2C(=O)Oc2ccccc2)N3C)cc1 [RTI-120]
- AD50 Tail-Flick ([1]; mice): 4.0 μmol/hg
- Relative potency in blocking nicotine's antinociceptive effect (in words, comparator in the value) ([1]; tail-flick, mice): only one-half as potent as RTI-32
- IC50 (Dopamine transporter; [4]): 3.26 nM
- IC50 (Serotonin transporter; [5]): 24500 nM
- IC50 [2, 6]: 5830 nM

SMILES: COC(=O)C(c1ccccc1)C1CCCCN1 (stereo not drawn) [Methylphenidate, reference compound]
- Tail-flick, % blockade @ dose ([1]; @ 74 μmol/hg, s.c.): 5% @ 74
- Blockade of nicotine-induced antinociception (in words) ([1]; tail-flick, mice): failed to block

SMILES: COC(=O)[C@H]1[C@@H](OC(=O)c2ccccc2)C[C@@H]2CC[C@H]1[N+]2(C)C.[I-] [cocaine methiodide, reference compound]
- Blockade of nicotine-induced antinociception (in words) ([1]; tail-flick, mice): failed to significantly block
- Blockade of nicotine-induced antinociception (in words) ([1]; tail-flick, mice, listed as cocaine-methiodide): Lack of blockade

SMILES: Cn1c(=O)c2c(ncn2C)n(C)c1=O [Caffeine, reference compound]
- AD50, nicotine-induced antinociception in tail-flick test ([1]; mice): 32.4 μmol/hg
- Blockade of nicotine-induced antinociception (in words) ([1]; tail-flick, mice): blocked nicotine-induced antinociception

SMILES: CCN(CC)CC(=O)Nc1c(C)cccc1C [Lidocaine, reference compound]
- Tail-flick, % blockade @ dose ([1]; @ 75 μmol/hg, s.c.): 7% @ 75
- Blockade of nicotine-induced antinociception (in words) ([1]; tail-flick, mice): failed to significantly block

SMILES: COC(=O)[C@H]1[C@@H](c2ccc(Cl)cc2)C[C@H]2CC[C@H]1N2C [RTI-31]
- AD50 Tail-Flick ([1]; mice): 7.2 μmol/hg
- AD50 Hypothermia ([3]; mice): 1.1 μmol/hg
- AD50, blockade of nicotine-induced hypothermia ([3]; mice): 1.1 µmol/kg
- Blockade of nicotine-induced hypothermia (in words) ([3]; mice): significantly blocked
- IC50 (Serotonin transporter; [5]): 44.5 nM

SMILES: CN1Cc2c(N)cccc2C(c2ccccc2)C1 (stereo not drawn) [Nomifensine, reference compound]
- AD50, nicotine-induced antinociception in tail-flick test ([1]; mice): 1.7 μmol/hg
- Blockade of nicotine-induced antinociception (in words) ([1]; tail-flick, mice): dose-dependently blocked
- Relative potency in blocking nicotine's antinociceptive effect (in words, comparator in the value) ([1]; tail-flick, mice): five times more potent than GBR 12909

SMILES: CN1[C@H]2CC[C@@H]1[C@@H](C(=O)Oc1ccccc1)[C@@H](c1ccc(Cl)cc1)C2 [RTI-113]
- AD50 Tail-Flick ([1]; mice): 5.6 μmol/hg
- IC50 (Dopamine transporter; [4]): 1.98 nM
- IC50 (Serotonin transporter; [5]): 2340 nM
- IC50 [2, 6]: 2930 nM

SMILES: CN1[C@H]2CC[C@@H]1[C@@H](C(=O)O)[C@@H](c1ccc(Cl)cc1)C2 [RTI-70]
- Tail-flick, % blockade @ dose ([1]; @ 90 μmol/hg): 0% @ 90
- Relative potency in blocking nicotine's antinociceptive effect (in words, comparator in the value) ([1]; tail-flick, mice): much less potent than cocaine
- Hypothermia, % blockade @ dose ([3]; @ 90 μmol/hg): 40% @ 90
- IC50 (Dopamine transporter; [4]): 2070 nM
- IC50 (Serotonin transporter; [5]): 59500 nM
- IC50 [2, 6]: > 200000 nM

SMILES: COC(=O)[C@H]1[C@@H](c2ccc(Br)cc2)C[C@H]2CC[C@@H]1N2C [RTI-51]
- AD50 Tail-Flick ([1]; mice): 1.0 μmol/hg
- IC50 (Dopamine transporter; [4]): 1.69 nM
- IC50 (Serotonin transporter; [5]): 10.6 nM

SMILES: CC(C)OC(=O)C1C(c2ccc(I)cc2)CC2CCC1N2C (stereo not drawn) [RTI-121]
- AD50 Tail-Flick ([1]; mice): 0.3 μmol/hg
- Fold more potent than cocaine in blocking nicotine's antinociceptive effect ([1]; tail-flick, mice): 10 fold
- AD50 Hypothermia ([3]; mice): 49 μmol/hg
- Blockade of nicotine-induced hypothermia (in words) ([3]; mice): significantly blocked
- Fold less potent in blocking nicotine hypothermia than antinociception ([3]; mice): > 100 fold
- IC50 (Dopamine transporter; [7]): 0.4 nM
- IC50 [2, 8]: 285 nM

SMILES: CN1C2CCC1C(C(=O)N1CCCC1)C(c1ccc(I)cc1)C2 (stereo not drawn) [RTI-229]
- AD50 Tail-Flick ([1]; mice): 3.6 μmol/hg
- Relative potency in blocking nicotine's antinociceptive effect (in words, comparator in the value) ([1]; tail-flick, mice): about the same potency as cocaine
- IC50 (Dopamine transporter; [7]): 0.37 nM
- IC50 (Serotonin transporter; read-out: Serotonin [3H]Paroxetine IC50; brain; cited from earlier work): 1790 nM
- IC50 [2, 8]: 990 nM

SMILES: COC(=O)[C@H]1[C@@H](c2ccc(Cl)cc2)C[C@@H]2CC[C@H]1N2 [RTI-110]
- AD50 Tail-Flick ([1]; mice): 1.0 μmol/hg
- Fold more potent than cocaine in blocking nicotine's antinociceptive effect ([1]; tail-flick, mice): 3 fold
- IC50 (Dopamine transporter; [4]): 0.62 nM
- IC50 (Serotonin transporter; [5]): 4.1 nM
- IC50 [2, 6]: 5.45 nM

SMILES: COC(=O)[C@H]1[C@@H](c2ccccc2)C[C@@H]2CC[C@H]1N2C [WIN 35,065-2, reference compound]
- AD50 Tail-Flick ([1]; mice): 8.0 μmol/hg
- Times less potent than cocaine in blocking nicotine's antinociceptive effect ([1]; tail-flick, mice): 2.5 times
- AD50 Hypothermia ([3]; mice): 6.7 μmol/hg
- Blockade of nicotine-induced hypothermia (in words) ([3]; mice): significantly blocked
- IC50 (Dopamine transporter; [4]): 23 nM
- IC50 [2, 6]: 920 nM

SMILES: COC(=O)[C@H]1C(c2ccc(I)cc2)C[C@@H]2CC[C@H]1N2C (stereo partly drawn) [RTI-55]
- AD50 Tail-Flick ([1]; mice): 0.9 μmol/hg
- AD50 Hypothermia ([3]; mice): 1.2 μmol/hg
- Blockade of nicotine-induced hypothermia (in words) ([3]; mice): significantly blocked
- IC50 (Dopamine transporter; [4]): 1.26 nM
- IC50 (Serotonin transporter; [5]): 4.2 nM
- IC50 [2, 6]: 63 nM

SMILES: Fc1ccc(C(OCCN2CCN(CCCc3ccccc3)CC2)c2ccc(F)cc2)cc1 [GBR 12909, reference compound]
- AD50, nicotine-induced antinociception in tail-flick test ([1]; mice): 8.4 μmol/hg

SMILES: CNCCC(Oc1ccccc1OC)c1ccccc1 (stereo not drawn) [Nisoxetine, reference compound]
- AD50, nicotine-induced antinociception in tail-flick test ([1]; mice): 7.4 μmol/hg

SMILES: COC(=O)C1C2CC[C@H](C[C@@H]1c1ccc(N)cc1)N2C (stereo partly drawn) [RTI-29]
- AD50 Tail-Flick ([1]; mice): 6.8 μmol/hg
- Relative potency in blocking nicotine's antinociceptive effect (in words, comparator in the value) ([1]; tail-flick, mice): one-half as potent as cocaine; also recorded: approximately the same activity as WIN 35,065-2
- IC50 (Dopamine transporter; [4]): 9.8 nM
- IC50 (Serotonin transporter; [5]): 5110 nM
- IC50 [2, 6]: 151 nM

SMILES: CNCCC(Oc1ccc(C(F)(F)F)cc1)c1ccccc1 (stereo not drawn) [Fluoxetine, reference compound]
- Tail-flick, % blockade @ dose ([1]; @ 86.7 μmol/hg, s.c.): 15% @ 86.7
- Blockade of nicotine-induced antinociception (in words) ([1]; tail-flick, mice): failed to significantly block

SMILES: CC(N)Cc1ccccc1 (stereo not drawn) [Amphetamine, reference compound]
- AD50, nicotine-induced antinociception in tail-flick test ([1]; mice): 36.9 μmol/hg
- Blockade of nicotine-induced antinociception (in words) ([1]; tail-flick, mice): blocked nicotine-induced antinociception

SMILES: COC(=O)[C@H]1[C@@H](c2ccc(Cl)c(Cl)c2)C[C@@H]2CC[C@H]1N2C [RTI-111]
- AD50 Tail-Flick ([1]; mice): 1.3 μmol/hg
- Fold more potent than cocaine in blocking nicotine's antinociceptive effect ([1]; tail-flick, mice): ~2.5 fold
- IC50 (Dopamine transporter; [4]): 0.79 nM
- IC50 (Serotonin transporter; [5]): 3.1 nM
- IC50 [2, 6]: 17.9 nM

SMILES: CC(NC(C)(C)C)C(=O)c1cccc(Cl)c1 (stereo not drawn) [Bupropion, reference compound]
- AD50, nicotine-induced antinociception in tail-flick test ([1]; mice): 8 μmol/hg
- Blockade of nicotine-induced antinociception (in words) ([1]; tail-flick, mice): dose-dependently blocked
- Relative potency in blocking nicotine's antinociceptive effect (in words, comparator in the value) ([1]; tail-flick, mice): as potent as GBR 12909

SMILES: CC(C)OC(=O)[C@@H]1C2CC[C@H](C[C@@H]1c1ccc(Cl)cc1)N2C [RTI-114]
- AD50 Tail-Flick ([1]; mice): 5.3 μmol/hg
- AD50 Hypothermia ([3]; mice): 9 μmol/hg
- IC50 (Dopamine transporter; [4]): 1.4 nM
- IC50 (Serotonin transporter; [5]): 1400 nM
- IC50 [2, 6]: 778 nM

SMILES: CN1C2CCC1C(C(=O)N1CCCC1)C(c1ccc(Cl)cc1)C2 (stereo not drawn) [RTI-147]
- AD50 Tail-Flick ([1]; mice): 5.7 μmol/hg
- Relative potency in blocking nicotine's antinociceptive effect (in words, comparator in the value) ([1]; tail-flick, mice): about one-half as potent as cocaine
- IC50 (Dopamine transporter; [7]): 1.38 nM
- IC50 (Serotonin transporter; [5]): 12400 nM
- IC50 [2, 8]: 3950 nM

SMILES: COC(=O)[C@H]1[C@@H](c2ccc(C)cc2)C[C@@H]2CC[C@H]1N2C [RTI-32]
- AD50 Tail-Flick ([1]; mice): 2.0 μmol/hg
- AD50 Hypothermia ([3]; mice): 31.7 μmol/hg
- Blockade of nicotine-induced hypothermia (in words) ([3]; mice): significantly blocked
- IC50 (Dopamine transporter; [4]): 1.7 nM
- IC50 [2, 6]: 60 nM

SMILES: CCN(CC)CCOC(=O)c1ccc(N)cc1 [Procaine, reference compound]
- Tail-flick, % blockade @ dose ([1]; @ 75 μmol/hg, s.c.): 5% @ 75
- Blockade of nicotine-induced antinociception (in words) ([1]; tail-flick, mice): failed to significantly block
